In patent US20250268870A1, “SMALL MOLECULE INDUCERS OF CARDIOMYOCYTES TO IMPROVE CARDIAC STRUCTURE AND FUNCTION” (UNIVERSITY OF MARYLAND, BALTIMORE, priority 2022, published 2025):

What was measured:
[1] = tested on: iDCM-CMs; experiment: PCNT / MTOC localization (centriolar, split, perinuclear) in C19-treated iDCM-CMs, quantitated by a blinded observer; assay type: cell-based, human; settings: for initiation of the perinuclear MTOC: iDCM-CMs (cDCM-CMs) treated with C19
[2] = tested on: iDCM-CMs; experiment: Sarcomere formation in C19-treated iDCM-CMs (confocal imaging); assay type: cell-based, human; settings: C19-treated iDCM-CMs vs untreated iDCM-CMs
[3] = tested on: iDCM-CMs; experiment: Cell shortening (contractility) on Matrigel mattress, edge detection; assay type: cell-based, human
[4] = tested on: CMs; settings: previously shown; cited from earlier work
[5] = tested on: RTTN; experiment: Knockdown of RTTN in zebrafish embryos: incidence of pericardial edema; assay type: in vivo; settings: zebrafish embryos at 48 hours post-fertilization; Vehicle=8.4%
Method: Single mating pairs were bred overnight, and embryos were kept at 28.5° C., consistent with standard practices. Injections were performed using an Eppendorf™ FemtoJet 4i microinjector. Needles were pulled using a Sutter Instrument Co. Flaming/Brown Micropipette Puller Model P-97 with filaments from World Precision Instruments (Item #TW100F-4) (heat=90, pull=30, and velocity=7). The translational blocking morpholino oligonucleotide 5′-[…]-3′ (SEQ ID NO: 41) was purchased from GeneTools™. mRNA was generated from pcDNA-dCas9 (Addgene™) using the mMESSAGE mMACHINE T7 ULTRA Transcription Kit from Invitrogen™. Alt-R CRISPR-Cas9 sgRNA, sgRNA #1: 5′-[…]-3 (SEQ ID NO:42) and sgRNA #2: 5′-[…]-3′ (SEQ ID NO:43) were purchased from Integrated DNA Technologies. Wild-type NHGRI embryos were injected at the 1-2 cell stage with MO (6 ng) or dCas9 mRNA (1 ng) with or without the CRISPRi sgRNA (0.5 ng). At 8 hours post fertilization (hpf), E3 water was replaced with 0.003% 1-phenyl-2-thiourea (PTU) in E3, and the embryos remained in PTU until they were phenotyped for cardiac edema, and heart morphology at 48 hpf.

Compound	initiation of the perinuclear MTOC [1]	initiation of the perinuclear MTOC ([1]; listed as C192)	PCNT perinuclear, % of CMs ([1]; iDCM-CMs + 10 μM C19 for 48 hours from D30, D32 CMs, control-CMs 23.1%, untreated iDCM-CMs 7.6%, p=0.0082) [%]	sarcomere formation [2]	cell shortening versus healthy control-CMs ([3]; D40 C19-treated iDCM-CMs vs control-CMs, p=0.682 (NS))	contractility (% cell shortening) ([3]; D40 C19-treated iDCM-CMs vs untreated iDCM-CMs, p=0.001)	centrosome reduction in CMs [4]	embryos with large pericardial edema [5] [%]
OCCCCOc1nsnc1-c1ccc(Cl)c(Cl)c1 [C19]	improved initiation of the perinuclear MTOC	restored initiation of the perinuclear MTOC	23.6	improved sarcomere formation	comparable levels of cell shortening	significantly improved	induce centrosome reduction	
MO: translational blocking morpholino oligonucleotide 5′-TCTTTATGAGTGACGATAACTCCAT-3′ (SEQ ID NO: 41) against zebrafish RTTN (all phosphorodiamidate morpholino (PMO))								45.6
